Legend:
[1] = Dissolution of CBD in ethanol and consumable alcohol (precipitation / clarity); type: physicochemical
Method: The Combining Cannabinoid Solution with Consumable Alcohol(s) step 156 involves adding the Solution from 154 to a plurality of consumable alcohols measured in 155 in order to create a CAD. In one example, 50 mg of isolated cannabinoid is measured 151. Approximately 5 mL of ethanol is measured 152. The cannabinoid is combined with the ethanol 153. A cannabinoid solution is created by ensuring the cannabinoid is fully dissolved in the ethanol 154. The resulting solution is then combined with one or more consumable alcohols 156. In this example, approximately 745 mL of vodka, to create a standard 750 mL bottle of cannabinoid infused vodka. In other embodiments, other volumes of CADs can be produced. In yet another embodiment, the volume fraction of cannabinoid/ethanol solution in total volume of CADs is equal to or less than 1%.
One particular cannabinoid that can be used is CBD. […] Thus, the CBD and ethanol combine to remain as a fully dissolved, clear solution. […]
The Combining CBD/Ethanol Solution with consumable Alcohol(s) step 256 involves adding the Solution from 254 to the plurality of consumable alcohols measured in 255 in order to create a CAD. In one example, 50 mg of isolated CBD is measured 251. Approximately 5 mL of ethanol is measured 252. […]

[2] = Effects reported by people when the CBD alcoholic drink is consumed; type: in vivo; details: CBD consumed together with alcohol in the drink; reports of consumers
Description: When consumed, the positive effects of the CBD help to offset the deleterious effects of the alcohol.

[3] = system: binge alcohol-induced neurodegeneration; details: transdermal delivery, rodent model; Liputa et al. 2013; cited from earlier work

In the case of C=C(C)[C@@H]1CCC(C)=C[C@H]1c1c(O)cc(CCCCC)cc1O [CBD, cannabidiol], the “dissolution of CBD in ethanol” value ([1]; 7.8 mg CBD in 1 mL ethanol) is reported as “no problem with dissolution”, the “precipitation of CBD from the solution” value ([1]; amounts/ratios described: 50 mg in approx. 5 mL ethanol, combined with approx. 745 mL vodka, room temperature) is reported as “will not precipitate out” and the “effects reported when consumed” value [2] is reported as “euphoria, a sense of being upbeat and feeling little to no effect of the alcohol”. The “effect on binge alcohol-induced neurodegeneration” value [3] was “attenuate binge alcohol-induced neurodegeneration”.
